Here are results for 35 compounds from patent US20240279236A1, “COMPOUNDS AND METHODS OF TREATING TUBERCULOSIS” (Fimbrion Therapeutics, Inc., priority 2021, published 2024).

Each structure is given as a SMILES string. pIC50: −log10 of the molar value.

For one assay, the system named is WT Mtb Erdman strain. The assay is described as follows: Microplate Alamar Blue Assay (MABA), Mtb growth inhibition. The note with it: Middlebrook 7H9 media, 7 days at 37° C. in 5% CO2. It is filed as cell-based, Mycobacterium tuberculosis.
The compound `Cc1cc2c(N[C@@H]3C[C@H]3c3ccc(F)c(F)c3)nc(-c3ccc(=O)[nH]c3)nc2s1` [Example 490, 5-(4-(((1R,2S)-2-(3,4-difluorophenyl)cyclopropyl)amino)-6-methylthieno[2,3-d]pyrimidin-2-yl)pyridin-2(1H)-one] had a pIC50 of less than 5.04.

The assay is the same for the next values; noted with them: Mycobacterium tuberculosis, ERDMAN, 168 h, Middlebrook 7H9 media, 7 days at 37° C. in 5% CO2.
In turn, `Cc1cc2c(NCCCc3ccc(-c4ccc(OC(F)(F)F)cc4)cc3)nc(-c3ccoc3C)nc2s1` [Example 456, 6-methyl-2-(2-methylfuran-3-yl)-N-(3-(4′-(trifluoromethoxy)-[1,1′-biphenyl]-4-yl)propyl)thieno[2,3-d]pyrimidin-4-amine] had a negative logarithm of the IC50 (pIC50) of less than 5.00.

As for `Cc1nc2c(NCCCc3ccc(-c4cnc(F)cn4)cc3)nc(-c3ncon3)nc2s1` [Example 457, N-(3-(4-(5-fluoropyrazin-2-yl)phenyl)propyl)-2-methyl-5-(1,2,4-oxadiazol-3-yl)thiazolo[5,4-d]pyrimidin-7-amine], the pIC50 is less than 6.00. `CSc1nc(NCCCc2ccc(-c3ccc(C(F)(F)F)cn3)cc2)c2cc(C)sc2n1` [Example 458, 6-methyl-2-(methylthio)-N-(3-(4-(5-(trifluoromethyl)pyridin-2-yl)phenyl)propyl)thieno[2,3-d]pyrimidin-4-amine]: the pIC50 is 7.85.

For `Cc1cc2c(NCCCc3ccc(-c4ccc(OC(F)(F)F)cn4)cc3)nc(-c3ccon3)nc2s1` [Example 459, 2-(isoxazol-3-yl)-6-methyl-N-(3-(4-(5-(trifluoromethoxy)pyridin-2-yl)phenyl)propyl)thieno[2,3-d]pyrimidin-4-amine], the negative-log IC50 (pIC50) is 7.37. In the case of `Cc1nc2c(NCCCc3ccc(-c4cnc(F)cn4)cc3)nc(-c3ccon3)nc2s1` [Example 465, N-(3-[4-(5-fluoropyrazin-2-yl)phenyl]propyl)-2-methyl-5-(1,2-oxazol-3-yl)-[1,3]thiazolo[5,4-d]pyrimidin-7-amine], the negative-log IC50 (pIC50) is 6.74. For `FC(F)(F)Oc1ccc(-c2ccc(CCCNc3nc(Cl)nc4sccc34)cc2)cc1` [Example 467, 2-chloro-N-(3-(4′-(trifluoromethoxy)-[1,1′-biphenyl]-4-yl)propyl)thieno[2,3-d]pyrimidin-4-amine], the pIC50 was 6.70. This pIC50 and that of the compound before are within 0.2 log units of each other. Turning to `FC(F)(F)Oc1ccc(-c2ccc(CCCNc3nc(Cl)nc4scnc34)cc2)cc1` [Example 468, 5-chloro-N-(3-(4′-(trifluoromethoxy)-[1,1′-biphenyl]-4-yl)propyl)thiazolo[5,4-d]pyrimidin-7-amine], the negative logarithm of the IC50 (pIC50) is 6.16. `Cc1cc2c(NCCCc3ccc(-c4cnc(F)cn4)cc3)nc(Cl)nc2s1` [Example 469, 2-chloro-N-(3-(4-(5-fluoropyrazin-2-yl)phenyl)propyl)-6-methylthieno[2,3-d]pyrimidin-4-amine] had a pIC50 of 6.77.

For `Cc1nc2c(NCCCc3ccc(-c4cnc(F)cn4)cc3)nc(Cl)nc2s1` [Example 470, 5-chloro-N-(3-(4-(5-fluoropyrazin-2-yl)phenyl)propyl)-2-methylthiazolo[5,4-d]pyrimidin-7-amine], the negative logarithm of the IC50 (pIC50) was 6.48. `Cc1cc2c(N[C@@H]3C[C@H]3c3ccc(F)c(F)c3)nc(-c3ccc(=O)[nH]c3)nc2s1` [Example 490, 5-(4-(((1R,2S)-2-(3,4-difluorophenyl)cyclopropyl)amino)-6-methylthieno[2,3-d]pyrimidin-2-yl)pyridin-2(1H)-one] had a negative-log IC50 (pIC50) of 5.33.

Compound `Cc1cc2c(N[C@@H]3C[C@H]3c3ccc(F)c(F)c3)nc(-c3ccnc(N(C)C)c3)nc2s1` [Example 491, N-((1R,2S)-2-(3,4-difluorophenyl)cyclopropyl)-2-(2-(dimethylamino)pyridin-4-yl)-6-methylthieno[2,3-d]pyrimidin-4-amine] gave a negative-log IC50 (pIC50) of 5.36. Regarding `Cc1cc2c(N[C@@H]3C[C@H]3c3ccc(F)c(F)c3)nc(-c3ccc(S(C)(=O)=O)cc3)nc2s1` [Example 492, N-((1R,2S)-2-(3,4-difluorophenyl)cyclopropyl)-6-methyl-2-(4-(methylsulfonyl)phenyl)thieno[2,3-d]pyrimidin-4-amine], the pIC50 is less than 5.00.

With `Cc1cc2c(N[C@@H]3C[C@H]3c3ccc(F)c(F)c3)nc(-c3cncnc3)nc2s1` [Example 493, N-((1R,2S)-2-(3,4-difluorophenyl)cyclopropyl)-6-methyl-2-(pyrimidin-5-yl)thieno[2,3-d]pyrimidin-4-amine], the pIC50 was less than 5.00.

In the case of `CNS(=O)(=O)c1ccccc1-c1nc(N[C@@H]2C[C@H]2c2ccc(F)c(F)c2)c2cc(C)sc2n1` [Example 494, 2-(4-(((1R,2S)-2-(3,4-difluorophenyl)cyclopropyl)amino)-6-methylthieno[2,3-d]pyrimidin-2-yl)-N-methylbenzenesulfonamide], the negative logarithm of the IC50 (pIC50) is less than 5.00.

Compound `Cc1cc2c(N[C@@H]3C[C@H]3c3ccc(F)c(F)c3)nc(-c3ccccc3O)nc2s1` [Example 495, 2-(4-(((1R,2S)-2-(3,4-difluorophenyl)cyclopropyl)amino)-6-methylthieno[2,3-d]pyrimidin-2-yl)phenol] showed a pIC50 of less than 5.00. `COc1ccccc1-c1nc(N[C@@H]2C[C@H]2c2ccc(F)c(F)c2)c2cc(C)sc2n1` [Example 496, N-((1R,2S)-2-(3,4-difluorophenyl)cyclopropyl)-2-(2-methoxyphenyl)-6-methylthieno[2,3-d]pyrimidin-4-amine] gave a negative-log IC50 (pIC50) of less than 5.00. In the case of `Cc1cc2c(N[C@@H]3C[C@H]3c3ccc(F)c(F)c3)nc(-c3ccc(O)cc3)nc2s1` [Example 497, 4-(4-(((1R,2S)-2-(3,4-difluorophenyl)cyclopropyl)amino)-6-methylthieno[2,3-d]pyrimidin-2-yl)phenol], the pIC50 was less than 5.00. `COc1ccc(-c2nc(N[C@@H]3C[C@H]3c3ccc(F)c(F)c3)c3cc(C)sc3n2)cc1` [Example 498, N-((1R,2S)-2-(3,4-difluorophenyl)cyclopropyl)-2-(4-methoxyphenyl)-6-methylthieno[2,3-d]pyrimidin-4-amine] gave a pIC50 of 5.39. For `Cc1cc2c(N[C@@H]3C[C@H]3c3ccc(F)c(F)c3)nc(-c3ccc(F)cc3F)nc2s1` [Example 499, 2-(2,4-difluorophenyl)-N-((1R,2S)-2-(3,4-difluorophenyl)cyclopropyl)-6-methylthieno[2,3-d]pyrimidin-4-amine], the pIC50 was 5.47. Take `Cc1cc2c(N[C@@H]3C[C@H]3c3ccc(F)c(F)c3)nc(-c3ccc(F)c(F)c3)nc2s1` [Example 500, 2-(3,4-difluorophenyl)-N-((1R,2S)-2-(3,4-difluorophenyl)cyclopropyl)-6-methylthieno[2,3-d]pyrimidin-4-amine]: the negative-log IC50 (pIC50) is 5.44.

Compound `Cc1cc2c(N[C@@H]3C[C@H]3c3ccc(F)c(F)c3)nc(-c3cccc(N(C)C)c3)nc2s1` [Example 501, N-((1R,2S)-2-(3,4-difluorophenyl)cyclopropyl)-2-(3-(dimethylamino)phenyl)-6-methylthieno[2,3-d]pyrimidin-4-amine] had a pIC50 of less than 5.00. In the case of `C=Cc1nc(NCCCc2ccc(-c3ccc(OC(F)(F)F)cc3)cc2)c2cc(C)sc2n1` [Example 502, 2-ethenyl-6-methyl-N-(3-[4′-(trifluoromethoxy)-[1,1′-biphenyl]-4-yl]propyl)thieno[2,3-d]pyrimidin-4-amine], the pIC50 was 8.22. On the same count and under the same terms, as for `c1ccc(CCCNc2nc(N3CCOCC3)nc3sccc23)cc1` [Example 504, 2-morpholino-N-(3-phenylpropyl)thieno[2,3-d]pyrimidin-4-amine], the figure is less than 5.00.

As to `c1ccc(CCCNc2nc(NC3CC3)nc3sccc23)cc1` [Example 505, N2-cyclopropyl-N4-(3-phenylpropyl)thieno[2,3-d]pyrimidine-2,4-diamine], the negative-log IC50 (pIC50) is 5.04. Consider `Cc1cc2c(NCCCc3ccc(OC(F)(F)F)cc3)nc(N3CCCC3)nc2s1` [Example 506, 6-methyl-2-(pyrrolidin-1-yl)-N-(3-(4-(trifluoromethoxy)phenyl)propyl)thieno[2,3-d]pyrimidin-4-amine], for which the negative logarithm of the IC50 (pIC50) is 6.92. The compound `Cc1cc2c(NCCCc3ccccc3)nc(N3CCSCC3)nc2s1` [Example 507, 6-methyl-N-(3-phenylpropyl)-2-thiomorpholinothieno[2,3-d]pyrimidin-4-amine] had a pIC50 of less than 5.00.

For `Cc1cc2c(NCCCc3ccccc3)nc(N3CCN(C)CC3)nc2s1` [Example 508, 6-methyl-2-(4-methylpiperazin-1-yl)-N-(3-phenylpropyl)thieno[2,3-d]pyrimidin-4-amine], the pIC50 was less than 5.00. In turn, `Cc1cc2c(NCCCc3ccccc3)nc(N3CCC3)nc2s1` [Example 510, 2-(azetidin-1-yl)-6-methyl-N-(3-phenylpropyl)thieno[2,3-d]pyrimidin-4-amine] had a negative-log IC50 (pIC50) of 6.96. Still for that read-out and setting: as for `Cc1cc2c(NCCCc3ccccc3)nc(N3CC(F)(F)C3)nc2s1` [Example 511, 2-(3,3-difluoroazetidin-1-yl)-6-methyl-N-(3-phenylpropyl)thieno[2,3-d]pyrimidin-4-amine], the figure is 6.24. In the case of `Cc1cc2c(NCCCc3ccccc3)nc(N3CC(F)C3)nc2s1` [Example 512, 2-(3-fluoroazetidin-1-yl)-6-methyl-N-(3-phenylpropyl)thieno[2,3-d]pyrimidin-4-amine], the pIC50 was 6.21. Take `Cc1cc2c(NCCCc3ccccc3)nc(N3CCC(F)(F)C3)nc2s1` [Example 513, 2-(3,3-difluoropyrrolidin-1-yl)-6-methyl-N-(3-phenylpropyl)thieno[2,3-d]pyrimidin-4-amine]: the pIC50 was 6.64. Same read-out and setting: to `Cc1cc2c(NCCCc3ccccc3)nc(N3CCC[C@H]3C)nc2s1` [Example 514, (R)-6-methyl-2-(2-methylpyrrolidin-1-yl)-N-(3-phenylpropyl)thieno[2,3-d]pyrimidin-4-amine] belongs 5.15. In turn, `Cc1cc2c(NCCCc3ccccc3)nc(N3CCC(F)(F)CC3)nc2s1` [Example 515, 2-(4,4-difluoropiperidin-1-yl)-6-methyl-N-(3-phenylpropyl)thieno[2,3-d]pyrimidin-4-amine] showed a pIC50 of less than 5.00. Same read-out and setting: as for `Cc1cc2c(NCCCc3ccccc3)nc(N3CCCC3)nc2s1` [Example 516, 6-methyl-N-(3-phenylpropyl)-2-(pyrrolidin-1-yl)thieno[2,3-d]pyrimidin-4-amine], the figure is 6.96; as for `Cc1cc2c(NCCCc3ccccc3)nc(N3CCCCC3)nc2s1` [Example 517, 6-methyl-N-(3-phenylpropyl)-2-(piperidin-1-yl)thieno[2,3-d]pyrimidin-4-amine], 5.51.
